# Experimental data reported in ChEMBL document CHEMBL3885861, “Open TG-GATES”.
# Species on record: Rattus norvegicus
# Assay: Open TG-GATES - Regimen: Daily Repeat
# Assay type: toxicity, organism-based, Sprague-Dawley
# Parameters: regimen Daily Repeat, gender Male, age 6 weeks
# Conditions: in vivo, iv, 0 mg/kg, route intravenous injection, dose level Control; for APTT / Bas / Eos / Fbg / Hb / Ht / Lym / MCH / MCHC / MCV / Mono / Neu / PT / Plat / RBC / Ret / WBC: tissue Blood; for KIDNEY_L / KIDNEY_R / KIDNEY_TOTAL: tissue Kidney; for LIVER: tissue Liver; for A/G / ALP / ALT / AST / BUN / CRE / Ca / Cl / DBIL / GLC / IP / K / LDH / Na / PL / RALB / TBIL / TC / TG / TP / gamma-GTP: tissue Plasma
smiles,measurement,setting,value
C[C@@H]1[C@H](O)[C@@H](C)/C=C/C=C/C=C/C=C/C=C/C=C/C=C/[C@H](O[C@@H]2O[C@H](C)[C@@H](O)[C@H](N)[C@@H]2O)C[C@@H]2O[C@](O)(C[C@@H](O)C[C@@H](O)[C@H](O)CC[C@@H](O)C[C@@H](O)CC(=O)O[C@H]1C)C[C@H](O)[C@H]2C(=O)O [AMPHOTERICIN B],TERMINAL_BW,"72 h, time 3 day",239.8 g
same,APTT,"72 h, time 3 day",16.6 s
same,Bas,"72 h, time 3 day",0%
same,Eos,"72 h, time 3 day",1%
same,Fbg,"72 h, time 3 day",293.6 mg/dL
same,Hb,"72 h, time 3 day",13.7 g/dL
same,Ht,"72 h, time 3 day",40.1%
same,Lym,"72 h, time 3 day",75.8%
same,MCH,"72 h, time 3 day",20.5 pg
same,MCHC,"72 h, time 3 day",34.2%
same,MCV,"72 h, time 3 day",60 fL
same,Mono,"72 h, time 3 day",2.2%
same,Neu,"72 h, time 3 day",19.8%
same,PT,"72 h, time 3 day",12.6 s
same,Plat,"72 h, time 3 day",145.3 x10_4/uL
same,RBC,"72 h, time 3 day",668.2 x10_4/ul
same,Ret,"72 h, time 3 day",4.9%
same,WBC,"72 h, time 3 day",97.1 x10_2/uL
same,KIDNEY_L,"72 h, time 3 day",1 g
same,KIDNEY_R,"72 h, time 3 day",1 g
same,KIDNEY_TOTAL,"72 h, time 3 day",2 g
same,LIVER,"72 h, time 3 day",11.5 g
same,A/G,"72 h, time 3 day",0.8
same,ALP,"72 h, time 3 day",1512.4 IU/L
same,ALT,"72 h, time 3 day",38.6 IU/L
same,AST,"72 h, time 3 day",66.2 IU/L
same,BUN,"72 h, time 3 day",16.6 mg/dL
same,CRE,"72 h, time 3 day",0.2 mg/dL
same,Ca,"72 h, time 3 day",11 mg/dL
same,Cl,"72 h, time 3 day",105.4 meq/L
same,DBIL,"72 h, time 3 day",0.02 mg/dL
same,GLC,"72 h, time 3 day",175.4 mg/dL
same,IP,"72 h, time 3 day",7.3 mg/dL
same,K,"72 h, time 3 day",4.1 meq/L
same,LDH,"72 h, time 3 day",58.6 IU/L
same,Na,"72 h, time 3 day",142.8 meq/L
same,PL,"72 h, time 3 day",140.6 mg/dL
same,RALB,"72 h, time 3 day",2.7 g/dL
same,TBIL,"72 h, time 3 day",0.046 mg/dL
same,TC,"72 h, time 3 day",73.6 mg/dL
same,TG,"72 h, time 3 day",110.8 mg/dL
same,TP,"72 h, time 3 day",6 g/dL
same,gamma-GTP,"72 h, time 3 day",1.2 IU/L
same,TERMINAL_BW,"[…], time 7 day",275.6 g
same,TERMINAL_BW,"[…], time 14 day",324.6 g
same,TERMINAL_BW,"[…], time 28 day",391.3 g
same,APTT,"[…], time 7 day",17.5 s
same,Bas,"[…], time 7 day",0%
same,Eos,"[…], time 7 day",1%
same,Fbg,"[…], time 7 day",264.4 mg/dL
same,Hb,"[…], time 7 day",13.4 g/dL
same,Ht,"[…], time 7 day",38.9%
same,Lym,"[…], time 7 day",79.8%
same,MCH,"[…], time 7 day",20.7 pg
same,MCHC,"[…], time 7 day",34.4%
same,MCV,"[…], time 7 day",60 fL
same,Mono,"[…], time 7 day",2.2%
same,Neu,"[…], time 7 day",16%
same,PT,"[…], time 7 day",12.3 s
same,Plat,"[…], time 7 day",122.6 x10_4/uL
same,RBC,"[…], time 7 day",648.2 x10_4/ul
same,Ret,"[…], time 7 day",4.7%
same,WBC,"[…], time 7 day",102.1 x10_2/uL
same,APTT,"[…], time 14 day",16.3 s
same,Bas,"[…], time 14 day",1%
same,Eos,"[…], time 14 day",1%
same,Fbg,"[…], time 14 day",280.6 mg/dL
same,Hb,"[…], time 14 day",14.6 g/dL
same,Ht,"[…], time 14 day",41.3%
same,Lym,"[…], time 14 day",80%
same,MCH,"[…], time 14 day",20.5 pg
same,MCHC,"[…], time 14 day",35.4%
same,MCV,"[…], time 14 day",57.8 fL
same,Mono,"[…], time 14 day",2.4%
same,Neu,"[…], time 14 day",15.6%
same,PT,"[…], time 14 day",12.3 s
same,Plat,"[…], time 14 day",129.9 x10_4/uL
same,RBC,"[…], time 14 day",716.4 x10_4/ul
same,Ret,"[…], time 14 day",4%
same,WBC,"[…], time 14 day",134.6 x10_2/uL
same,APTT,"[…], time 28 day",19.2 s
same,Bas,"[…], time 28 day",0.4%
same,Eos,"[…], time 28 day",1%
same,Fbg,"[…], time 28 day",260.4 mg/dL
same,Hb,"[…], time 28 day",15.3 g/dL
same,Ht,"[…], time 28 day",43.7%
same,Lym,"[…], time 28 day",77%
same,MCH,"[…], time 28 day",18.9 pg
same,MCHC,"[…], time 28 day",35%
same,MCV,"[…], time 28 day",54 fL
same,Mono,"[…], time 28 day",1.4%
same,Neu,"[…], time 28 day",19%
same,PT,"[…], time 28 day",13 s
same,Plat,"[…], time 28 day",114.3 x10_4/uL
same,RBC,"[…], time 28 day",808.4 x10_4/ul
same,Ret,"[…], time 28 day",2.2%
same,WBC,"[…], time 28 day",119.7 x10_2/uL
same,KIDNEY_L,"[…], time 7 day",1.1 g
same,KIDNEY_R,"[…], time 7 day",1.1 g
same,KIDNEY_TOTAL,"[…], time 7 day",2.2 g
same,KIDNEY_L,"[…], time 14 day",1.3 g
same,KIDNEY_R,"[…], time 14 day",1.3 g
same,KIDNEY_TOTAL,"[…], time 14 day",2.6 g
same,KIDNEY_L,"[…], time 28 day",1.4 g
same,KIDNEY_R,"[…], time 28 day",1.3 g
same,KIDNEY_TOTAL,"[…], time 28 day",2.8 g
same,LIVER,"[…], time 7 day",12 g
same,LIVER,"[…], time 14 day",14 g
same,LIVER,"[…], time 28 day",15.5 g
same,A/G,"[…], time 7 day",0.8
same,ALP,"[…], time 7 day",1920.8 IU/L
same,ALT,"[…], time 7 day",35 IU/L
same,AST,"[…], time 7 day",69 IU/L
same,BUN,"[…], time 7 day",17 mg/dL
same,CRE,"[…], time 7 day",0.2 mg/dL
same,Ca,"[…], time 7 day",11.3 mg/dL
same,Cl,"[…], time 7 day",105.6 meq/L
same,DBIL,"[…], time 7 day",0.02 mg/dL
same,GLC,"[…], time 7 day",179.8 mg/dL
same,IP,"[…], time 7 day",7 mg/dL
same,K,"[…], time 7 day",4.3 meq/L
same,LDH,"[…], time 7 day",63 IU/L
same,Na,"[…], time 7 day",143.8 meq/L
same,PL,"[…], time 7 day",136.2 mg/dL
same,RALB,"[…], time 7 day",2.7 g/dL
same,TBIL,"[…], time 7 day",0.05 mg/dL
same,TC,"[…], time 7 day",69.8 mg/dL
same,TG,"[…], time 7 day",101.6 mg/dL
same,TP,"[…], time 7 day",5.9 g/dL
same,gamma-GTP,"[…], time 7 day",1 IU/L
same,A/G,"[…], time 14 day",0.8
same,ALP,"[…], time 14 day",1407.4 IU/L
same,ALT,"[…], time 14 day",40.8 IU/L
same,AST,"[…], time 14 day",66 IU/L
same,BUN,"[…], time 14 day",18 mg/dL
same,CRE,"[…], time 14 day",0.2 mg/dL
same,Ca,"[…], time 14 day",10.9 mg/dL
same,Cl,"[…], time 14 day",105 meq/L
same,DBIL,"[…], time 14 day",0.014 mg/dL
same,GLC,"[…], time 14 day",185.4 mg/dL
same,IP,"[…], time 14 day",7.4 mg/dL
same,K,"[…], time 14 day",4.2 meq/L
same,LDH,"[…], time 14 day",61 IU/L
same,Na,"[…], time 14 day",142.8 meq/L
same,PL,"[…], time 14 day",144.6 mg/dL
same,RALB,"[…], time 14 day",2.6 g/dL
same,TBIL,"[…], time 14 day",0.048 mg/dL
same,TC,"[…], time 14 day",76.2 mg/dL
same,TG,"[…], time 14 day",117 mg/dL
same,TP,"[…], time 14 day",6 g/dL
same,gamma-GTP,"[…], time 14 day",1 IU/L
same,A/G,"[…], time 28 day",0.7
same,ALP,"[…], time 28 day",1095.6 IU/L
same,ALT,"[…], time 28 day",36.8 IU/L
same,AST,"[…], time 28 day",62.2 IU/L
same,BUN,"[…], time 28 day",17.2 mg/dL
same,CRE,"[…], time 28 day",0.2 mg/dL
same,Ca,"[…], time 28 day",11.1 mg/dL
same,Cl,"[…], time 28 day",105 meq/L
same,DBIL,"[…], time 28 day",0.018 mg/dL
same,GLC,"[…], time 28 day",186 mg/dL
same,IP,"[…], time 28 day",6.2 mg/dL
same,K,"[…], time 28 day",3.8 meq/L
same,LDH,"[…], time 28 day",54.2 IU/L
same,Na,"[…], time 28 day",144.4 meq/L
same,PL,"[…], time 28 day",148.6 mg/dL
same,RALB,"[…], time 28 day",2.6 g/dL
same,TBIL,"[…], time 28 day",0.06 mg/dL
same,TC,"[…], time 28 day",73.8 mg/dL
same,TG,"[…], time 28 day",157 mg/dL
same,TP,"[…], time 28 day",6.4 g/dL
same,gamma-GTP,"[…], time 28 day",1.2 IU/L
